Converted amounts (≈) assume the structure as drawn. “Also recorded” adds a separate entry of the source. Where two headings read alike, the source gives them in different places.
Tests used:
[1] = test system: E. coli ATCC 25922; assay: Broth microdilution MIC/MBC, glycosides with or without polymyxins; format: cell-based, Escherichia coli; conditions: for MIC: Escherichia coli, ATCC25922
[2] = test system: E. cloacae CQ1941; assay: as above; format: cell-based; conditions: for MIC: Enterobacter cloacae, CQ1941
[3] = test system: K. pneumoniae CQ1942; assay: Broth microdilution MIC, glycosides with or without polymyxins; format: cell-based, Klebsiella pneumoniae; conditions: for MIC: Klebsiella pneumoniae, CQ1942
[4] = test system: Caco-2 cells; assay: Resazurin cell viability assay (cytotoxicity); format: cell-based, human; conditions: Homo sapiens, Caco-2, 72 h, read-out: IC50
Outline: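 HEK-293T and Caco-2 cells (1.5 × 10^4/well, RPMI 1640 with 10% FBS) exposed 72 h at 37 °C to glycosides at final 100 to 10 µM, alone or with PMB or colistin at final 0.5, 0.25 or 0.125 µg/mL; max DMSO 0.33%. Resazurin added 4 h, read 570/600 nm; IC50 from dose-response fits, mean ± SD of three replicates.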

[5] = test system: E. coli K12; conditions: cited from earlier work
[6] = test system: E. coli K12 spheroplasts; conditions: only the IM left intact; cited from earlier work
[7] = test system: B. cereus ATCC 14579; conditions: cited from earlier work
[8] = PE vs phosphatidylcholine (PC); cited from earlier work
[9] = alone, read-out: MICA (MIC of each compound individually)
[10] = combination with the lowest FICI
[11] = compound + colistin, lowest FICI

## CCCCCCCCCCCCO[C@H]1C[C@H](O)[C@@H](O)[C@H](C)O1 [Compound 3, dodecyl 2,6-dideoxy-α-L-arabino-hexopyranoside]
[1]; Cpd conc. 0.4 μg/mL, strain A
  MIC of colistin in combination with the compound: 0.5 µg/mL
[1]; Cpd conc. 0.8 μg/mL, strain A
  MIC of colistin in combination with the compound: 0.5 µg/mL
[1]; Cpd conc. 3.125 μg/mL, strain A
  MIC of colistin in combination with the compound: 0.25 µg/mL
[1]; Cpd conc. 6.25 μg/mL, strain A
  MIC of colistin in combination with the compound: 0.25 µg/mL
[1]; Cpd conc. 12.5 μg/mL, strain A
  MIC of colistin in combination with the compound: 0.25 µg/mL
[1]; Cpd conc. […], strain A
  MIC of colistin in combination with the compound: 0.5 µg/mL
[1]; agent alone, no adjuvant (polymyxin conc. 0), strain A, read-out: MIC
  MIC: > 100 µg/mL
[1]; [9]
  MIC: > 100 µg/mL
[1]; PMB 0.25 μg/mL, strain A
  MIC of compound in combination with PMB: 3.1 µg/mL
[1]; PMB 0.5 μg/mL, strain A
  MIC of compound in combination with PMB: ≤ 0.1 µg/mL
[1]; colistin 0.06 μg/mL, strain A
  MIC of compound in combination with colistin: > 100 µg/mL
[1]; colistin 0.125 μg/mL, strain A
  MIC of compound in combination with colistin: > 100 µg/mL
[1]; colistin 0.25 μg/mL, strain A
  MIC of compound in combination with colistin: 3.1 µg/mL
[1]; colistin 0.5 μg/mL, strain A
  MIC of compound in combination with colistin: ≤ 0.1 µg/mL
[1]; [10]
  MICA(A + B) (MIC of compound in combination with colistin): 3.125 µg/mL
  MICB(A + B) (MIC of colistin in combination with compound): 0.25 µg/mL
[1]; compound + colistin
  Interpretation (of FICI): Additive (from 0.5 to 1.0 were additive)
[1]; [11]
  FICI: 0.52
[2]; Cpd conc. 0.4 μg/mL, strain D
  MIC of colistin in combination with the compound: 0.5 µg/mL
[2]; Cpd conc. 0.8 μg/mL, strain D
  MIC of colistin in combination with the compound: 0.5 µg/mL
[2]; Cpd conc. 3.125 μg/mL, strain D
  MIC of colistin in combination with the compound: 0.25 µg/mL
[2]; Cpd conc. 6.25 μg/mL, strain D
  MIC of colistin in combination with the compound: 0.25 µg/mL
[2]; Cpd conc. 12.5 μg/mL, strain D
  MIC of colistin in combination with the compound: 0.25 µg/mL
[2]; Cpd conc. […], strain D
  MIC of colistin in combination with the compound: 0.25 µg/mL
[2]; agent alone, no adjuvant (polymyxin conc. 0), strain D, read-out: MIC
  MIC: > 100 µg/mL
[2]; [9]
  MIC: > 100 µg/mL
[2]; PMB 0.5 μg/mL, strain D
  MIC of compound in combination with PMB: ≤ 0.1 µg/mL
[2]; colistin 0.06 μg/mL, strain D
  MIC of compound in combination with colistin: > 100 µg/mL
[2]; colistin 0.125 μg/mL, strain D
  MIC of compound in combination with colistin: > 100 µg/mL
[2]; colistin 0.25 μg/mL, strain D
  MIC of compound in combination with colistin: 1.6 µg/mL
[2]; colistin 0.5 μg/mL, strain D
  MIC of compound in combination with colistin: ≤ 0.1 µg/mL
[2]; [10]
  MICA(A + B) (MIC of compound in combination with colistin): 1.6 µg/mL
  MICB(A + B) (MIC of colistin in combination with compound): 0.25 µg/mL
[2]; compound + colistin
  Interpretation (of FICI): Additive (from 0.5 to 1.0 were additive)
[2]; [11]
  FICI: 0.51
[3]; Cpd conc. 0.4 μg/mL, strain E
  MIC of colistin in combination with the compound: 0.5 µg/mL
[3]; Cpd conc. 0.8 μg/mL, strain E
  MIC of colistin in combination with the compound: 0.5 µg/mL
[3]; Cpd conc. 3.125 μg/mL, strain E
  MIC of colistin in combination with the compound: 0.25 µg/mL
[3]; Cpd conc. 6.25 μg/mL, strain E
  MIC of colistin in combination with the compound: 0.25 µg/mL
[3]; Cpd conc. 12.5 μg/mL, strain E
  MIC of colistin in combination with the compound: 0.25 µg/mL
[3]; Cpd conc. […], strain E
  MIC of colistin in combination with the compound: 0.5 µg/mL
[3]; agent alone, no adjuvant (polymyxin conc. 0), strain E, read-out: MIC
  MIC: > 100 µg/mL
[3]; [9]
  MIC: > 100 µg/mL
[3]; PMB 0.25 μg/mL, strain E
  MIC of compound in combination with PMB: > 100 µg/mL
[3]; PMB 0.5 μg/mL, strain E
  MIC of compound in combination with PMB: ≤ 0.1 µg/mL
[3]; colistin 0.06 μg/mL, strain E
  MIC of compound in combination with colistin: > 100 µg/mL
[3]; colistin 0.125 μg/mL, strain E
  MIC of compound in combination with colistin: > 100 µg/mL
[3]; colistin 0.25 μg/mL, strain E
  MIC of compound in combination with colistin: 3.1 µg/mL
[3]; colistin 0.5 μg/mL, strain E
  MIC of compound in combination with colistin: ≤ 0.1 µg/mL
[3]; [10]
  MICA(A + B) (MIC of compound in combination with colistin): 3.125 µg/mL
  MICB(A + B) (MIC of colistin in combination with compound): 0.25 µg/mL
[3]; compound + colistin
  Interpretation (of FICI): Additive (from 0.5 to 1.0 were additive)
[3]; [11]
  FICI: 0.52
[4]; Colistin 0.25 μg/mL
  IC50: 69.2 ± 1.25 µM
[4]; Colistin 0.5 μg/mL
  IC50: 68.2 ± 2.12 µM
[4]; No polymyxin
  IC50: 68.9 ± 2.21 µM
[4]; tested alone (no polymyxin adjuvant)
  IC50: 21.8 µg/mL
[5]
  MIC: 256 µg/mL (≈ 809 µM)
[6]
  MIC: 4 µg/mL (≈ 12.6 µM)
[7]
  MIC: 16 µg/mL (≈ 50.6 µM)
[8]
  interaction with phosphatidylethanolamine (PE): selectively interact with phosphatidylethanolamine (PE); also recorded: Confirmed PE binder
